# Reference: patent US20180284123A1, “BARCODED RAPID ASSAY PLATFORM USEFUL FOR EFFICIENT ANALYSIS OF CANDIDATE MOLECULES AND METHODS OF MAKING AND USING THE PLATFORM” (California Institute of Technology, priority 2017, published 2018)
# Numbered stars: 1 amine (or outer) side, 2 acyl side, 3 side chain; on linkers, the order of the positions; unused ones are H or OH. Bridge positions count the residues as written; N and C are the ends. Square brackets hold non-standard residues; d marks the D form. Triazole bridges read from a SMILES are 1,4-linked. Peptide text beside a SMILES is read from it. * marks the point of attachment. Biotin = O=C1N[C@H]2[C@H](CS[C@H]2CCCCC(=O)*)N1; Lys(N3) = [N-]=[N+]=NCCCC[C@H](N)C(=O)O; Ethylenediamine = C(CN[*:2])N[*:1]; PEG5 = NCCOCCOCCOCCOCCOCCC(=O)O; Pra = C#CC[C@H](N)C(=O)O
# Biological target: T1, KRAS (Homo sapiens, UniProt P01116)
# T1 construct: His6-tagged human KRas Isoform 4B (residues 1-169); His6; made in house; host or cells: E. coli BL21(DE3), PQE80 vector
# Assay: B-RAP surface immunofluorescent assay, PCC ligand KRas EC50
# Type: binding
# Conditions: for Avg F635, Full Centroid / Avg F635, Full Lane / avg F635, Left Part Centroid / avg F635, Middle Part Centroid / avg F635, Right Part Centroid: 10 μM KRas well of plate #1, pixel by pixel; for avg F635, Left Part Centroid: left part of centroid; for avg F635, Middle Part Centroid: middle part of centroid; for avg F635, Right Part Centroid: right part of centroid; for EC50: 13-point KRas concentration series, each point in decaplicate, Hill coefficient=1
# Procedure: The barcode patterned microchip surface was partitioned into 16 individual microwells using a pre-fabricated PDMS slab. Individual biotinylated PCC candidates were complexed to specific SAC-DNA conjugates, combined into a cocktail, and then self-assembled, via DNA hybridization, onto designated barcode stripes (FIGS. 2-4). Incubation with a specific concentration of the target protein preceded incubation with a primary capture antibody and then a fluorophore-conjugated secondary detection antibody. During assay execution, each well represents a different target concentration or assay condition. Once developed, the fluorescence of the barcodes is digitized using a GenePix 4400A array scanner, with an excitation laser power optimized to a power level of 40% (60 W), which maximizes detection sensitivity while also minimizing signal saturation. Data extraction occurs using 10 μm radius circles, taken along the length of a barcode stripe. A fluorescence signal representing the average of all the pixels within a given circle is collected. A total of ten circles (data-blocks) are measured along a 180 μm span of the middle portion for each individual barcode lane in a given well. 10 μM KRas protein gave an average F635 of 47,868.7, with a standard deviation of 4154.53. 1 μM KRas protein gave an average F635 of 11437.6, with a standard deviation of 1602.202. 100 nM KRas protein gave an average F635 of 1780.6, with a standard deviation of 236.38. This illustrates the intensity across a stripe compared to the intensity from the data-block extraction. After extraction the data is background corrected. The background signal arises from (a) non-specific binding of the primary and secondary antibodies (independent of [KRas]), but can vary across different barcode stripes), and (b) non-specific binding of KRas protein ([KRas] dependent). Background (a) was assessed by measuring the average signal in the null protein well for each stripe. Background (b) was assessed by measuring the average fluorescence for the dummy ligand (Biotin* probe) that was in each well. The background subtracted data was then graphed in Graphpad Prism 7 and fitted to a sigmoidal curve (Hill coefficient=1).
# Measurement of PCC Ligand KRas EC50 with the Barcode Rapid Assay Platform
# Protein Incubation Buffer: Tris-buffered saline (TBS)+0.05% Tween20 (TBST)
# A pre-fabricated PDMS template was aligned onto the DNA barcode microchip, and the microchip was taped into a 10 cm petri dish. The wells on the platform were wet with 50 μL PBST before filling with blocking buffer and placing into a 37° C. incubator for 1 hr. Concurrently, 40 μL 1% BSA in PBS solutions containing 750 nM of a SAC-DNA conjugate and 3.75 μM of one biotinylated PCC ligand or biotin-A20-Cy3 blank were prepared for each SAC-DNA conjugate. The biotinylated ligands were allowed to complex with the SAC protein for one hour before pooling the SAC-DNA-ligand solutions (final [SAC-DNA-ligand conjugates]=50 nM). The blocking buffer was aspirated and each well was loaded with the SAC-DNA-ligand conjugates cocktail for hybridization with the DNA barcode at 37° C. for one hour. The wells were washed with PBST (3×) before loading serially diluted solutions of KRas protein in protein buffer (0 to 400 μM). After shaking at RT for one hour, the wells were rinsed with PBST (5×), making sure to pipet up/down with the first addition of PB ST. A (100:1) dilution of CST rabbit anti-Ras Ab (#39655) in 1° ab buffer was added to each well before shaking at RT for one hour. After rinsing the wells with PBST (3×), the wells were loaded with a (200:1) dilution of Abcam goat anti-rabbit-Alexafluor 647 linked ab (ab150079) in 2° ab buffer before shaking at RT for one hour. A final rinse of the wells with PBST (3×) proceeded peeling off the PDMS slab from the barcode microchip and dipping the barcode into the following solutions: PBS, (1:1) PBS: MQ H2O, MQ H2O (2×). […]
# T1 sequence (P01116 1-169 isoform P01116-2): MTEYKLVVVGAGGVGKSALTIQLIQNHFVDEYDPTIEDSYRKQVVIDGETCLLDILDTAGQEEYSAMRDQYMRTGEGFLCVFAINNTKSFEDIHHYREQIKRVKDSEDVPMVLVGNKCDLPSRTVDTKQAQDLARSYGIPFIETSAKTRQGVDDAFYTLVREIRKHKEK
SMILES,"Avg F635, Full Centroid","Avg F635, Full Lane","avg F635, Left Part Centroid","avg F635, Middle Part Centroid","avg F635, Right Part Centroid",EC50
"CCC(C)[C@@H]1NC(=O)CNC(=O)[C@H](Cc2cnc[nH]2)NC(=O)[C@@H](N)Cc2cn(nn2)CCCC[C@@H](C(=O)NCCOCCOCCOCCOCCOCCC(=O)NCCNC(=O)CCCC[C@@H]2SC[C@@H]3NC(=O)N[C@@H]32)NC(=O)CNC(=O)[C@H](C(C)C)NC1=O (single isomer, unassigned) [Ligand L1b, HGIVG]",24340,22519,21889,24245,26959,
"CC(C)[C@@H]1NC(=O)[C@H](CCC(=O)O)NC(=O)CNC(=O)[C@@H](N)Cc2cn(nn2)CCCC[C@@H](C(=O)NCCOCCOCCOCCOCCOCCC(=O)NCCNC(=O)CCCC[C@@H]2SC[C@@H]3NC(=O)N[C@@H]32)NC(=O)[C@@H]2CCCN2C(=O)[C@H](C(C)C)NC1=O (single isomer, unassigned) [Ligand L3a, GEVVP]",8117,7151,7137,8430,8811,1.49 ± 0.28 µM
"CC(C)[C@@H]1NC(=O)[C@H](CCC(=O)O)NC(=O)CNC(=O)[C@@H](N)Cc2cn(nn2)CCCC[C@@H](C(=O)NCCOCCOCCOCCOCCOCCC(=O)NCCNC(=O)CCCC[C@@H]2SC[C@@H]3NC(=O)N[C@@H]32)NC(=O)[C@@H]2CCCN2C(=O)[C@H](C(C)C)NC1=O (single isomer, unassigned) [Ligand L3b, GEVVP]",16158,15157,15070,16390,17046,13.7 ± 4.8 µM
"CC(C)[C@@H]1NC(=O)[C@@H](N)Cc2cn(nn2)CCCC[C@@H](C(=O)NCCOCCOCCOCCOCCOCCC(=O)NCCNC(=O)CCCC[C@@H]2SC[C@@H]3NC(=O)N[C@@H]32)NC(=O)[C@H](Cc2ccc(O)cc2)NC(=O)[C@@H]2CCCN2C(=O)[C@H](C(C)C)NC(=O)[C@H](CCC(=O)O)NC1=O (single isomer, unassigned) [Ligand L4a, VEVPY]",11363,10434,10179,11181,12764,9.51 ± 2.2 µM
"CC(C)[C@@H]1NC(=O)[C@@H](N)Cc2cn(nn2)CCCC[C@@H](C(=O)NCCOCCOCCOCCOCCOCCC(=O)NCCNC(=O)CCCC[C@@H]2SC[C@@H]3NC(=O)N[C@@H]32)NC(=O)[C@H](Cc2ccc(O)cc2)NC(=O)[C@@H]2CCCN2C(=O)[C@H](C(C)C)NC(=O)[C@H](CCC(=O)O)NC1=O (single isomer, unassigned) [Ligand L4b, VEVPY]",27245,25079,23307,27398,31147,52.2 ± 22 µM
"CC(C)[C@@H]1NC(=O)[C@H](CCC(=O)O)NC(=O)[C@H](C(C)C)NC(=O)[C@@H](N)Cc2cn(nn2)CCCC[C@@H](C(=O)NCCOCCOCCOCCOCCOCCC(=O)NCCNC(=O)CCCC[C@@H]2SC[C@@H]3NC(=O)N[C@@H]32)NC(=O)[C@@H]2CCCN2C(=O)[C@H](Cc2ccc(O)cc2)NC1=O (single isomer, unassigned) [Ligand L5a, VEVYP]",8341,7851,7918,8920,8196,
"CC(C)[C@@H]1NC(=O)[C@H](CCC(=O)O)NC(=O)[C@H](C(C)C)NC(=O)[C@@H](N)Cc2cn(nn2)CCCC[C@@H](C(=O)NCCOCCOCCOCCOCCOCCC(=O)NCCNC(=O)CCCC[C@@H]2SC[C@@H]3NC(=O)N[C@@H]32)NC(=O)[C@@H]2CCCN2C(=O)[C@H](Cc2ccc(O)cc2)NC1=O (single isomer, unassigned) [Ligand L5b, VEVYP]",32390,31581,31947,32789,32448,
"CC(C)[C@@H]1NC(=O)[C@@H](N)Cc2cn(nn2)CCCC[C@@H](C(=O)NCCOCCOCCOCCOCCOCCC(=O)NCCNC(=O)CCCC[C@@H]2SC[C@@H]3NC(=O)NC32)NC(=O)[C@H](Cc2ccc(O)cc2)NC(=O)[C@@H]2CCCN2C(=O)[C@H](C(C)C)NC(=O)[C@H](CCC(N)=O)NC1=O (single isomer, unassigned) [Ligand L7a, VQVPY]",36651,32992,32020,37152,40918,4.22 ± 0.71 µM
"CC(C)[C@@H]1NC(=O)[C@@H](N)Cc2cn(nn2)CCCC[C@@H](C(=O)NCCOCCOCCOCCOCCOCCC(=O)NCCNC(=O)CCCC[C@@H]2SC[C@@H]3NC(=O)NC32)NC(=O)[C@H](Cc2ccc(O)cc2)NC(=O)[C@@H]2CCCN2C(=O)[C@H](C(C)C)NC(=O)[C@H](CCC(N)=O)NC1=O (single isomer, unassigned) [Ligand L7b, VQVPY]",16195,14791,12956,16944,18781,25.3 ± 8.9 µM
CC(C)[C@@H]1NC(=O)[C@@H](N)Cc2cn(nn2)CCCC[C@@H](C(=O)NCCOCCOCCOCCOCCOCCC(=O)NCCNC(=O)CCCC[C@@H]2SC[C@@H]3NC(=O)N[C@@H]32)NC(=O)[C@H](Cc2ccc(O)cc2)NC(=O)[C@@H]2CCCN2C(=O)[C@H](C(C)C)NC(=O)[C@H]([C@@H](C)O)NC1=O [Ligand L6] (H-[Pra]VTVPY[Lys(N3)][PEG5]-{Ethylenediamine-Biotin}; triazole 1-7),17836,15968,15645,19382,18546,
"CC(C)[C@@H]1NC(=O)[C@@H](N)Cc2cn(nn2)CCCC[C@@H](C(=O)NCCOCCOCCOCCOCCOCCC(=O)NCCNC(=O)CCCC[C@@H]2SC[C@@H]3NC(=O)NC32)NC(=O)[C@H](Cc2ccc(O)cc2)NC(=O)[C@@H]2CCCN2C(=O)[C@H](C(C)C)NC(=O)[C@H](CCC(N)=O)NC1=O (stereo partly shown) [Ligand L7, VQVPY]",53496,48537,48599,54620,57411,
